How the values were obtained:
[1] = clinical; details: human
[2] = target: Serine/threonine-protein kinase mTOR (Homo sapiens, UniProt P42345)
Description: Inhibition of mTOR (unknown origin)

[3] = species: Homo sapiens; experiment: Selectivity index, ratio of IC50 for PI3Kalpha (unknown origin) to IC50 for mTOR (unknown origin); type: functional
[4] = tested on: MCF7; experiment: Antiproliferative activity against human MCF7 cells; type: functional, cell-based
[5] = tested on: A549; experiment: cells; details: Homo sapiens
Description: Antiproliferative activity against human A549 cells

[6] = tested on: CAKI-1; experiment: cells; details: Homo sapiens
Description: Antiproliferative activity against human CAKI-1 cells

[7] = tested on: MIA PaCa-2; experiment: cells; details: Homo sapiens
Description: Antiproliferative activity against human MIA PaCa-2 cells

[8] = tested on: PC-3; experiment: cells; details: Homo sapiens
Description: Antiproliferative activity against human PC-3 cells

[9] = tested on: HeLa; experiment: cells; details: Homo sapiens
Description: Antiproliferative activity against human HeLa cells

CO[C@H]1C[C@@H]2CC[C@@H](C)[C@@](O)(O2)C(=O)C(=O)N2CCCC[C@H]2C(=O)O[C@H]([C@H](C)C[C@@H]2CC[C@@H](O)[C@H](OC)C2)CC(=O)[C@H](C)/C=C(\C)[C@@H](O)[C@@H](OC)C(=O)[C@H](C)C[C@H](C)/C=C/C=C/C=C/1C [SIROLIMUS] gave a half-life [1] of 40 h.

Molecule CO[C@H]1C[C@@H]2CC[C@@H](C)[C@@](O)(O2)C(=O)C(=O)N2CCCC[C@H]2C(=O)O[C@H]([C@H](C)C[C@@H]2CC[C@@H](OCCO)[C@H](OC)C2)CC(=O)[C@H](C)/C=C(\C)[C@@H](O)[C@@H](OC)C(=O)[C@H](C)C[C@H](C)/C=C/C=C/C=C/1C [EVEROLIMUS] has an IC50 [2] of 0.005 µM.

With O=C(c1ccc(C(=O)C(F)(F)F)cc1)N1CCOc2ccc(-c3cnc4ccccc4c3)cc2C1 the Ratio IC50 [3] was 4 and the IC50 [2] was 0.095 µM.

C[C@H]1COCCN1c1nc(-c2ccc(NC(=O)NCC(F)F)cc2)cc(-c2cc(F)ccc2S(C)(=O)=O)n1 gave an IC50 [2] of less than 1 µM.

Work on CCc1ccc(C(=O)c2cnc3cc4c(cc3c2N2CCC(C(N)=O)CC2)OCCO4)cc1 yielded an IC50 [4] of 2 µM and an IC50 [5] of 8 µM.

With CCCc1nn(C)c2c(=O)[nH]c(-c3cc(OC)cc(OC)c3)nc12 the IC50 [6] was 17 µM, the IC50 [7] was 24 µM and the IC50 [5] was 14 µM. For the same molecule, the IC50 [8] was 38 µM and the IC50 [9] was 19 µM.

Work on CCOC(=O)N1Cc2nc(-c3ccc(NC(=O)NC4CC4)cc3)nc(N3CCOC[C@@H]3C)c2C1 yielded an IC50 [2] of less than 1 µM.

Work on COc1ccc(C2Cc3c(C)nc(N)nc3N([C@H]3CC[C@H](OCCO)CC3)C2=O)cn1 (some centres undefined) yielded an IC50 [2] of 0.016 µM.
